Reference: patent US7459455B2, “Pyrimidine compounds” (SmithKline Beecham Corporation, priority 2002, dated 2008)
Where a name gives a salt, the structure may show the parent alone.

What was measured:
[1] = target: T1, Recombinant GST-Tie2 (Homo sapiens, UniProt Q02763); assay: Tie2 Fluorescence Polarization Kinase Activity Assay (TIE2-FP); type: biochemical; conditions: activated Tie2, 200 μM ATP
T1 construct: GST
Protocol: Tie2 Fluorescence Polarization Kinase Activity Assay: (TIE2-FP)
Activation of Recombinant Tie2 Activation:
Recombinant GST-Tie2 was activated by incubating the enzyme in 20 mM Tris-HCl, pH 7.5, 12 mM MgCl2, 100 mM NaCl, 20 μM sodium vanidate, 1 mM DT and 300 μM ATP at room temperature for 2 hours. The activation mixture was then passed through a NAP-25 desalting column (Pharmacia Biotech cat. no. 17-0852-O2) to remove the free ATP. The activated enzyme was stored as aliquots at −80° C. in 20 mM Tris-HCl, pH 7.5 and 100 mM NaCl.
The final assay conditions were 50 mM HEPES, pH 7.5, 5% DMSO (when screening compounds), 200 μM ATP, 5 mM MgCl2, 1 mM DTT, 50 μM sodium vanidate, 1 nM activated enzyme, and 200 μM peptide. IC50's of compounds were measured under subsaturating ATP (200 μM) and varing concentrations of activated Tie2 and peptide substrate (RFWKYEFWR-OH; MW 1873 Da, TFA salt). Panvera Anti-phosphotyrosine antibody (Cat#P2840) and PTK Green Tracer (Cat#P2842) were used to detect the phosphorylated peptide. Polarization was measured on a TECAN Polarion in 138-second cycles for 30 minutes at room temperature. IC50's were then determined from the % polarization using normal calculation methods.

[2] = system: Human umbilical cord endothelial cells (HUVEC); assay: VEGF-Driven Cellular Proliferation Assay: BrdU Incorporation Assay (VEGF-C); type: cell-based
Protocol: VEGF-Driven Cellular Proliferation Assay: BrdU Incorporation Assay (VEGF-C)
Human umbilical cord endothelial cells (HUVEC, Clonetics, CC2519) were passaged in Type I collagen-coated 100-mm petridishes in EGM-MV medium (Clonetics, CC3125) at 37 C in a humidified 5% CO2, 95% air incubator. (HUVEC passaged more than 6 times in vitro were discarded and not subjected to assaying.) The cells were harvested using trypsin/EDTA, counted using a haemocytometer and plated at 5000 cells/well in a Type I-collagen coated 96-well plate (Becton Dickinson, 354407) in M199 medium (Gibco BRL, 12340-030) containing 5% FBS (Hyclone, A 1115-L) and gentamicin (at 50 ug/ml, Gibco BRL). After incubation overnight at 37° C., the media were replaced with 100 ul of M199 serum-free medium containing compounds at various concentrations with 0.6% DMSO and gentamicin. The compounds were diluted in serum-free M199 medium from 10 mM stock solutions prepared in 100% DMSO. After a 30 min incubation at 37° C. the cells were fed with 100 ul of serum-free M199 medium containing gentamicin, 0.2% culture-grade bovine serum albumin (BSA, Sigma A1993) and 20 ng/ml of VEGF (R&D systems, 293-VE) or 0.6 ng/ml of basic FGF (R&D systems, 233-FB), and cultured at 37° C. for another 24 h. The cells were pulsed with bromodeoxyuridine (BrdU at 10 μM in serum-free M199) at 37° C. for an additional 24 h. The incorporation of BrdU into the proliferating HUVEC were analyzed using BrdU Cell Proliferation ELISA (Roche Molecular Biochemicals, 1647229) according to the manufacturer's protocols. The optical density at 450 nm was measured with a multilabel counter (ARVO SX, Wallac). The percent inhibition of cell growth was calculated relative to blank control wells. The concentration of test compound that inhibits 50% of cell growth (IC50) was interpolated using nonlinear regression (Levernberg-Marquardt) and the equation, γ=Vmax (1−x/(K+x))+Y2, where “K” was equal to the IC50. The IC50 values were converted to pIC50 values, i.e., −log IC50 in Molar concentration.

[3] = target: T2, GST-VEGFR2 (Homo sapiens, UniProt P35968); assay: VEGF-R2 Enzyme Assay (VEGF-E), LANCE method; type: biochemical; conditions: GST-VEGFR2, 75 μM ATP, peptide phosphorylation
T2 construct: GST-VEGFR2, baculovirus expressed recombinant constructs of the intracellular domains of human TIE2 tagged by GST; made in house
From the text: VEGF-R2 Enzyme Assay VEGF-E)
The VEGF enzyme assay used the LANCE method (Wallac) and GST-VEGFR2, baculovirus expressed recombinant constructs of the intracellular domains of human TIE2 tagged by GST. The method measured the ability of the purified enzymes to catalyse the transfer of the γ-phosphate from ATP onto tyrosine residues in a biotinylated synthetic peptide, (biotin-aminohexyl-EEEEYFELVAKKKK-NH2). This peptide phosphorylation was detected using the following procedure: GST-VEGFR2 was incubated for 40-60 mins at room temperature with 75 μM ATP, 5 mM MgCl2, 0.1 mM DTT, 0.1 mg/mL BSA and the test compound (diluted from a 10 mM stock in DMSO for desired concentration) in 100 mM HEPES buffer. The reaction was stopped by the addition of EDTA (final concentration 50 mM). Streptavidin linked-APC (allophycocyanin, Molecular Probe) and Europium-labeled anti-phosphorylated tyrosile antibody (Wallac) were then added at the final concentration of 15 nM and 1 nM, respectively. The APC signal was measured using an ARVO multilabel counter (Wallac Berthold, Japan). The percent inhibition of activity was calculated relative to blank control wells. The concentration of test compound that inhibits 50% of activity (IC50) was interpolated using nonlinear regression (Levernberg-Marquardt) and the equation, γ=Vmax (1−x/(K+x))+Y2, where “K” was equal to the IC50. The IC50 values were converted to pIC50 values, i.e., −log IC50 in Molar concentration.

Measured: IC50

T2 sequence (P35968 786-1356 limits assumed): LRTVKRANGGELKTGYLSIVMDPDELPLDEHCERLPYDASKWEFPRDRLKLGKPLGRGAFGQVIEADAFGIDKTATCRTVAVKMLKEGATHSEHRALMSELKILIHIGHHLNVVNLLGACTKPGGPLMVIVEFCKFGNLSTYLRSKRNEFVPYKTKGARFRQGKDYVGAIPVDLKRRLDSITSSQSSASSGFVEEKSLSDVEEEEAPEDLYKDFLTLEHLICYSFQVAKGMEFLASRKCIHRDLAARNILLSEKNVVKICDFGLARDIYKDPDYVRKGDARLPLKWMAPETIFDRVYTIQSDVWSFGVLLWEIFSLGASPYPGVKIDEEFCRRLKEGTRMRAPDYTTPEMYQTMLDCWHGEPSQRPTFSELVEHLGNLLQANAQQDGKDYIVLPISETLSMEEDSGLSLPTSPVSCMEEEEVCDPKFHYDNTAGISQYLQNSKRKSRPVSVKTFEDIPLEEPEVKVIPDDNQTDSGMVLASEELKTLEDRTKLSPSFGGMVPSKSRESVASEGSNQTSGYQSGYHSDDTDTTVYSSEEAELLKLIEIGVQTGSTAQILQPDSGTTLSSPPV
T1 sequence (Q02763 770-1124 limits assumed): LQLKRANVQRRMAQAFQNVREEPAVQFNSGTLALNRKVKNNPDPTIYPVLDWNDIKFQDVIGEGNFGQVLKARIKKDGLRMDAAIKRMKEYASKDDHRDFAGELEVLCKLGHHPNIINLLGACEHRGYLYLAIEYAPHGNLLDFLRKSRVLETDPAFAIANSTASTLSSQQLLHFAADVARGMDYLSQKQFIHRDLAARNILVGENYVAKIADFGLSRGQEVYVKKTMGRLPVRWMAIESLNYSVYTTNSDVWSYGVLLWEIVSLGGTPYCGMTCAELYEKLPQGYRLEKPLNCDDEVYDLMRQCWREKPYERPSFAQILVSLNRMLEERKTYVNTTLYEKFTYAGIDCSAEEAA

CN(c1ccc(NC(=O)Nc2ccc(Oc3ccccc3)cc2)cc1)c1ccnc(Nc2cccc(S(N)(=O)=O)c2)n1 [Example 3, 3-[(4-{methyl[4-({[(4-phenoxyphenyl)amino]carbonyl}amino)phenyl]amino}-pyrimidin-2-yl)amino]benzenesulfonamide]
< 100 nM: all assays above

CN(c1cccc(NC(=O)Nc2cc(C(F)(F)F)ccc2F)c1)c1ccnc(Nc2cccc(S(N)(=O)=O)c2)n1 [Example 14, 3-({4-[{3-[({[2-Fluoro-5-(trifluoromethyl)phenyl]amino}carbonyl)amino]phenyl}(methyl)amino]pyrimidin-2-yl}amino)benzenesulfonamide]
< 100 nM: all assays above

CN(c1ccc(NC(=O)Nc2ccc(C(F)(F)F)cc2)cc1)c1ccnc(Nc2cccc(S(N)(=O)=O)c2)n1 [Example 2, 3-{[4-(methyl{4-[({[4-(trifluoromethyl)phenyl]amino}carbonyl)amino]phenyl}amino)pyrimidin-2-yl]amino}benzenesulfonamide]
< 100 nM: all assays above

CCS(=O)(=O)c1ccc(OC)c(Nc2nccc(N(C)c3ccc(NC(=O)Nc4cc(C(F)(F)F)ccc4F)cc3)n2)c1 [Example 17, N-{4-[(2-{[5-(Ethylsulfonyl)-2-methoxyphenyl]amino}pyrimidin-4-yl)(methyl)amino]phenyl}-N′-[2-fluoro-5-(trifluoromethyl)phenyl]urea]
< 100 nM: all assays above

CN(c1ccc(NC(=O)Nc2cc(C(F)(F)F)ccc2F)cc1)c1ccnc(Nc2cccc(S(N)(=O)=O)c2)n1 [Example 11, 3-({4-[{4-[({[2-Fluoro-5-(trifluoromethyl)phenyl]amino}carbonyl)amino]phenyl}(methyl)amino]pyrimidin-2-yl}amino)benzenesulfonamide]
< 100 nM: all assays above

CCS(=O)(=O)c1ccc(OC)c(Nc2nccc(N(C)c3ccc(NC(=O)Nc4cccc(F)c4)cc3)n2)c1 [Example 18, N-{4-[(2-{[5-(Ethylsulfonyl)-2-methoxyphenyl]amino}pyrimidin-4-yl)(methyl)amino]phenyl}-N′-(3-fluorophenyl)urea]
< 100 nM: all assays above

CN(c1ccc(NC(=O)Nc2ccccc2)cc1)c1ccnc(Nc2cccc(S(N)(=O)=O)c2)n1 [Example 10, 3-({4-[{4-[(anilinocarbonyl)amino]phenyl}(methyl)amino]pyrimidin-2-yl}amino)benzenesulfonamide]
< 100 nM: all assays above

CN(c1ccc(NC(=O)Nc2ccc(OC(F)(F)F)cc2)cc1)c1ccnc(Nc2ccc(S(N)(=O)=O)cc2)n1 [Example 21, 4-{[4-(methyl{4-[({[4-(trifluoromethoxy)phenyl]amino}carbonyl)amino]phenyl}amino)pyrimidin-2-yl]amino}benzenesulfonamide]
< 100 nM: all assays above

CN(c1ccc(NC(=O)Nc2cccc(F)c2)cc1)c1ccnc(Nc2ccc(CS(C)(=O)=O)cc2)n1 [Example 12, N-(3-fluorophenyl)-N′-(4-{methyl[2-({4-[(methylsulfonyl)methyl]phenyl}amino)pyrimidin-4-yl]amino}phenyl)urea hydrochloride]
< 100 nM: all assays above
